The source of these data is patent publication US20250313535A1, “ALPHA 4 BETA 7 INTEGRIN MODULATORS AND USES THEREOF” (DICE MOLECULES SV, INC., priority 2022, published 2025).

One assay deals with patients. As to conditions: clinical trials; at the end of one year of treatment; cited from earlier work.
For a further assay, the target named is α4β7 integrin (Homo sapiens (Human), UniProt P13612+P26010). The assay can be described thus: Integrin Adhesion Assay: Protocol 1 (MAdCAM-coated plate, RPMI-8866 cells, CellTiter GLO readout). The format is cell-based. Conditions: integrin adhesion assay; determined by at least one of the assays described (protocol not specified). A digest of the protocol: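 RPMI-8866 cells (2×10^6 per mL) added with compounds (1% DMSO) to MAdCAM-coated wells blocked in HEPES/NaCl buffer with 1 mM MnCl2, 0.1 mM CaCl2, 1% BSA; 1 h at 37° C, 5% CO2. After four washes, bound cells read by CellTiter GLO luminescence; % inhibition vs DMSO and control wells, 4-parameter fit.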
In general terms: ATP-based viability assays read luminescence as a measure of living cells.

The target of another assay is α4β1 integrin (Homo sapiens (Human), UniProt P05556+P13612). The assay can be described thus: Integrin Adhesion Assay: Protocol 2 (VCAM-coated plate, Jurkat cells, CellTiter GLO readout). Conditions: determined by at least one of the assays described (protocol not specified). Type of assay: cell-based. In a few lines:
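Jurkat cells (2×10^6 per mL) adhered to VCAM-coated (0.1 ug/well), BSA-blocked wells with compound (1% DMSO) for 1 h at 37° C in 10 mM HEPES, 150 mM NaCl, 1 mM MnCl2, 0.1 mM CaCl2. After four washes, bound cells were quantified by CellTiter-Glo luminescence. Percent inhibition versus DMSO and control-compound wells was fitted to a 4-parameter curve.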

pIC50: −log10 of the molar value.

Sequence of α4β1 integrin (P13612 34-1032): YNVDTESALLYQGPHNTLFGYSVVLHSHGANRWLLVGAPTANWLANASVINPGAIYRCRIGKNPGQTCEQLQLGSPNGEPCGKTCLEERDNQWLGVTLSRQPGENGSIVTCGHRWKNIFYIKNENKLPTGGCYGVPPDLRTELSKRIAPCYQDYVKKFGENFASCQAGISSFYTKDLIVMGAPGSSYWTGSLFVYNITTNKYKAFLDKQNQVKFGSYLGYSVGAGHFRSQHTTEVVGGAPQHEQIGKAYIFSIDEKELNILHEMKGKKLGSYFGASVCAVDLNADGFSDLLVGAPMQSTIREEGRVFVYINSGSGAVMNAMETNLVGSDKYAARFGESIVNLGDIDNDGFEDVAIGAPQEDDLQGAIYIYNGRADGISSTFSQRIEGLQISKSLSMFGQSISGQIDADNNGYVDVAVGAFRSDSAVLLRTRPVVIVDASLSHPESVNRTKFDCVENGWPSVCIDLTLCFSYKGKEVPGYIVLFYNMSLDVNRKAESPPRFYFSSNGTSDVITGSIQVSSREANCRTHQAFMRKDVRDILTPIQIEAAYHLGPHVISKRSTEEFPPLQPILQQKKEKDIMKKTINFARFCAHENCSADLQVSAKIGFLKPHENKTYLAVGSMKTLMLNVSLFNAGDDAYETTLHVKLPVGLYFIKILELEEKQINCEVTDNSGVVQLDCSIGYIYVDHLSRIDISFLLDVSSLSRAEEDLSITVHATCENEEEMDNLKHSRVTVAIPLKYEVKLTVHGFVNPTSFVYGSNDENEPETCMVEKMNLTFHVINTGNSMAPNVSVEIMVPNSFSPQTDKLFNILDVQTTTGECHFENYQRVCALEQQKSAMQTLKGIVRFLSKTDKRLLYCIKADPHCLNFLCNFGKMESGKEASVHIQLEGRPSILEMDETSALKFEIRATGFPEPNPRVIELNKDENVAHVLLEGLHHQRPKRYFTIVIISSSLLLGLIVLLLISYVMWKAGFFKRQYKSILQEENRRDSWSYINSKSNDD
Sequence of α4β1 integrin (P05556 21-798): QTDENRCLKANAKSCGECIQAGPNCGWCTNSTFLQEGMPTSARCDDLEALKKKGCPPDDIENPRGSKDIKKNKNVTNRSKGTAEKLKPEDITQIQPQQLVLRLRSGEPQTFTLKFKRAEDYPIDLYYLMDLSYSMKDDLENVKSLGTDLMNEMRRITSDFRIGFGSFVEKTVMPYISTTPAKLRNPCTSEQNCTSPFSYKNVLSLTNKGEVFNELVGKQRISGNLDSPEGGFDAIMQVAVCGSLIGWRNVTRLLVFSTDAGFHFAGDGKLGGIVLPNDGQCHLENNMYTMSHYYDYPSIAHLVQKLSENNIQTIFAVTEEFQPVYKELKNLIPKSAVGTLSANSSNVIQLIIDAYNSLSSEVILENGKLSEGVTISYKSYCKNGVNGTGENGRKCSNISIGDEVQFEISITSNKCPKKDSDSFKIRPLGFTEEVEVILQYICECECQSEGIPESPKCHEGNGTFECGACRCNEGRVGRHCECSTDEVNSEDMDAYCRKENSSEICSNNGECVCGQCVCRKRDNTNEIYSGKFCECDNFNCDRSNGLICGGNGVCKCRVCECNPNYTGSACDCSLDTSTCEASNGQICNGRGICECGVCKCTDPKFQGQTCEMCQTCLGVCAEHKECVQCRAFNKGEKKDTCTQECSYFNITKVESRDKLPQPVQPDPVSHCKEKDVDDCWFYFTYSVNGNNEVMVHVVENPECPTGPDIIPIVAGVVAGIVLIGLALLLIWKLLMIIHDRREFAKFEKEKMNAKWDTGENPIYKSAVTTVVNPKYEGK
Sequence of α4β7 integrin (P13612 34-1032): as the sequence (P13612 34-1032) above
Sequence of α4β7 integrin (P26010 20-798): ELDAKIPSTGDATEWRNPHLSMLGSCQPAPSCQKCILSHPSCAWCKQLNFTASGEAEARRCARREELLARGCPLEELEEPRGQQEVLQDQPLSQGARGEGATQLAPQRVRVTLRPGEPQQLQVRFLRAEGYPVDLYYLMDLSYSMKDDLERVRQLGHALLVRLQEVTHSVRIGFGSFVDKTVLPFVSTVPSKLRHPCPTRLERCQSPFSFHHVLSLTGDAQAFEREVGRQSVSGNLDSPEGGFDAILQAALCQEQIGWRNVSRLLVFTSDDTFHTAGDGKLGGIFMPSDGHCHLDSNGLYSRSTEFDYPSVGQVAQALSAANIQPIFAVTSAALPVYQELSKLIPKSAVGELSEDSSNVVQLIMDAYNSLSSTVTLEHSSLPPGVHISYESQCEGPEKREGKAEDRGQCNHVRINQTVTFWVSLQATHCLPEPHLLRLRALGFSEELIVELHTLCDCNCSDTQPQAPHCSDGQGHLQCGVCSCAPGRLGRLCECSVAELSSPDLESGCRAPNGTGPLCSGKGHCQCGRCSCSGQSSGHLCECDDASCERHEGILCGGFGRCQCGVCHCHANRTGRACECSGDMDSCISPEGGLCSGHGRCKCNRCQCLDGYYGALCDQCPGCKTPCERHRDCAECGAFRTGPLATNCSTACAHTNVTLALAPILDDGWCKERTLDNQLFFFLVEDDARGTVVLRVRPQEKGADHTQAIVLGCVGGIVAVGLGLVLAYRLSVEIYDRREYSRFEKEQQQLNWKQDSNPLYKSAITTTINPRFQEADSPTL

Regarding vedolizumab [ENTYVIO], the “patients receiving ENTYVIO achieved remission” value in the assay on patients is given as “approximately 30%”.

By pIC50 is commonly meant the IC50 on a negative log10 scale, so that one unit is a factor of ten. With `Cn1ccc(=O)n(-c2cccc3c(C[C@H](NC(=O)C45CCC(CC4)CC5)C(=O)O)cccc23)c1=O` [Compound 51], the pIC50 on α4β7 integrin is 6.00 to 7.00; at α4β1 integrin, below 6.00. The like results for `CNC(=O)[C@@H]1CCN1C(=O)c1ccc2cc(C(=O)N[C@@H](Cc3cccc4c(-n5c(=O)ccn(C)c5=O)cccc34)C(=O)O)ccc2c1` [Compound 127] were, in that order, below 6.00 and below 6.00. For `Cn1ccc(=O)n(-c2cccc3c(C[C@H](NC(=O)c4c(F)cccc4CN4CCC4)C(=O)O)cccc23)c1=O` [Compound 7], the pIC50 on α4β7 integrin was 7.00 to 8.00; against α4β1 integrin, below 6.00.

In the case of `C/C=C/c1cn(C)c(=O)n(-c2cccc3c(C[C@H](NC(=O)c4c(F)cccc4F)C(=O)O)cccc23)c1=O` [Compound 141], the pIC50 at α4β7 integrin is 7.00 to 8.00; against α4β1 integrin, below 6.00. The like results for `Cn1ccc(=O)n(-c2cccc3c(C[C@H](NC(=O)C4(C)CCN(C(=O)C(F)F)CC4)C(=O)O)cccc23)c1=O` [Compound 55] were, in that order, 6.00 to 7.00 and below 6.00. The like results for `Cn1ccc(=O)n([C@H]2CCc3c(C[C@H](NC(=O)c4c(F)cccc4F)C(=O)O)cccc32)c1=O` (single isomer, unassigned) [Compound 282] were, in that order, 6.00 to 7.00 and below 6.00. As to `CC[C@@H](Nc1cc(F)c(C(=O)N[C@@H](Cc2cccc3c(-n4c(=O)ccn(C)c4=O)cccc23)C(=O)O)c(F)c1)C(F)(F)F` [Compound 112], the pIC50 is above 8.00 on α4β7 integrin and below 6.00 on α4β1 integrin. The like results for `O=C(N[C@@H](Cc1cccc2c(-c3cccc4ccncc34)cccc12)C(=O)O)c1c(F)cc(N2CCOC[C@@H]2C(F)(F)F)cc1F` [Compound 47] were, in that order, 7.00 to 8.00 and below 6.00. In the same order, the values of `Cn1ccc(=O)n(-c2cccc3c(C[C@H](NC(=O)C4(C)CCC(C)(C)CC4)C(=O)O)cccc23)c1=O` [Compound 162] are 6.00 to 7.00 and below 6.00. The like results for `Cc1ccccc1-c1cccc(C(F)(F)C(=O)N[C@@H](Cc2cccc3c(-n4c(=O)ccn(C)c4=O)cccc23)C(=O)O)c1` [Compound 179] were, in that order, below 6.00 and below 6.00. Consider `Cn1ccc(C(F)(F)F)c(-c2nccc3c(C[C@H](NC(=O)c4c(F)cc(N5CCOCC56CC6)cc4F)C(=O)O)cccc23)c1=O` [Compound 217], for which the pIC50 at α4β7 integrin was above 8.00; against α4β1 integrin, below 6.00. The like results for `Cn1ccc(C(F)(F)F)c(-c2nccc3c(C[C@H](NC(=O)c4c(Cl)cc(N5CCOC[C@@H]5C(F)(F)F)cc4CN4CCC(F)(F)CC4)C(=O)O)cccc23)c1=O` [Compound 224] were, in that order, 7.00 to 8.00 and below 6.00.

In the case of `Cn1c(=O)ccn(-c2cccc3c(C[C@H](NC(=O)c4c(F)cccc4F)C(=O)O)cccc23)c1=O` [Compound 4], the pIC50 against α4β7 integrin is 7.00 to 8.00; against α4β1 integrin it was below 6.00. Regarding `Cn1ccc(C(F)(F)F)c(-c2nccc3c(C[C@H](NC(=O)c4c(F)cc(N5CCOC[C@@H]5C(F)(F)F)cc4CN4CCOCC4)C(=O)O)cccc23)c1=O` [Compound 245], the pIC50 at α4β7 integrin is above 8.00; against α4β1 integrin it was below 6.00.
